The values below come from publication PMC11555678, “Improved Broad Spectrum Antifungal Drug Synergies with Cryptomycin, a Cdc50-Inspired Antifungal Peptide” (ACS Infectious Diseases, 2024).

In assay [1] the test system is C. neoformans H99. Description: microbe, parasite or virus in culture. The format is cell-based, Cryptococcus neoformans. The conditions noted are these: Table S1; unit and conditions not given (MICs elsewhere in μg/mL). The protocol: (§1) All microdilution assays with fungi were carried out in accordance with CLSI protocols from M27 for yeasts and M38 for filamentous fungi, respectively, unless otherwise specified.[64],[65] Briefly, 96-well plates were charged with RPMI1640 media, with operating volume in the first column, 200 μL, and half operating volume, 100 μL, in the remaining wells. Drug stock solution in DMSO was aliquoted into the first well in each row. Half of the volume in the dosed well was serially diluted 2-fold until column 11. Column 11 was used as the negative growth control, and column 12 was used as the positive growth control. ON yeast cultures in YPD were washed twice in DD-H2O, resuspended in PBS, and adjusted to 5000 cfu/mL in RPMI. The 96-well plate was inoculated with 100 μL aliquots of cell suspension per well. Plates were incubated at 37 °C for 2 days.

Another assay relates to C. neoformans cdc50Δ. The assay is described as follows: microbe, parasite or virus in culture. Conditions: Table S1; unit and conditions not given (MICs elsewhere in μg/mL). Type of assay: cell-based, Cryptococcus neoformans. The protocol: as §1
For the next assay, the system named is C. glabrata 2001. The assay is described as follows: microbe, parasite or virus in culture. The format is cell-based, Candida glabrata. The conditions noted are these: Table S1; unit and conditions not given (MICs elsewhere in μg/mL). The protocol:
as §1

The next assay has as its system C. albicans SC5413. The assay is described as follows: microbe, parasite or virus in culture. Type of assay: cell-based, Candida albicans. The conditions noted are these: Table S1; unit and conditions not given (MICs elsewhere in μg/mL). The protocol: as §1
The subject of assay [2] is C. neoformans H99. The format is cell-based, Cryptococcus neoformans. The conditions noted are these: (FITC)KKOO in combination with AMB. The protocol:
as §1, with “Plates were incubated at 37 °C for 2 days.” left out
To assess drug synergy, the initial media charged to the plate contained the peptide at twice the final operating concentration; the remaining processing steps were identical to the MIC experiment. Upon addition of 100 μL of inoculant, the final operating concentration was achieved. Control MIC plates were prepared alongside drug synergy plates to account for the day-to-day variability in any individual MIC. FIC index is computed using eq 1. All MIC assays and drug synergy assays were completed with two technical replicates per 96-well plate and a minimum of two biological replicates per drug combination. If a difference in MIC between the two technical replicates on the plate were observed, only the higher concentration was reported as the MIC to reduce the possibility of type 1 error (false positive) [drawing 1] 1

Consider “{D-Trp}GGIOONYA [W1w, D-Trp1 epimer of KKOO]”, for which the “MIC (SAR screen peptides)” value in the assay on C. neoformans H99 [1] is 16; against C. neoformans cdc50Δ it was 4; with C. glabrata 2001 it was 32; in the assay with C. albicans SC5413 it was over 128.
For “WGGIOONYA [KKOO-NHMe, C′ methylamide version of KKOO]”, the “MIC (SAR screen peptides)” value in the assay on C. neoformans H99 [1] came out at 8; with C. neoformans cdc50Δ, 4; in the assay with C. glabrata 2001 it was 16; with C. albicans SC5413 it was 16.
As to “WGGIO{D-Orn}NYA [O6o, D-Orn6 epimer of KKOO]”, the “MIC (SAR screen peptides)” value in the assay on C. neoformans H99 [1] is reported as 16; in the assay with C. neoformans cdc50Δ, 4; against C. glabrata 2001, over 128; with C. albicans SC5413 it was over 128.
“WGGIKANYA [K6A, alanine substituted peptide]”: the “MIC (SAR screen peptides)” value in the assay on C. neoformans cdc50Δ and against C. glabrata 2001 was over 128 throughout.
With “WGGIAANYA [KKAA, alanine substituted peptide]”, the “MIC (SAR screen peptides)” value against C. neoformans cdc50Δ and with C. glabrata 2001 was over 128 each time.
Consider “WGGIOO{D-Asn}YA [N7n, D-Asn7 epimer of KKOO]”, for which the “MIC (SAR screen peptides)” value against C. neoformans H99 [1] is recorded as 32; with C. neoformans cdc50Δ, 8; in the assay with C. glabrata 2001, over 128; in the assay on C. albicans SC5413 it was over 128.
As for “WGGIKONYA [K6O, single ornithine-substituted AW9-Ma derivative]”, the “MIC (SAR screen peptides)” value in the assay with C. neoformans H99 [1] amounted to 32; with C. neoformans cdc50Δ, 4; in the assay on C. glabrata 2001 it was 32; against C. albicans SC5413 it was 32.
Take “Myristic acid {Dap(FITC)}WGGIOONYA [(FITC)KKOO, FITC labeled version of KKOO]”: the “MIC (SAR screen peptides)” value with C. neoformans H99 [1] is reported as over 128; against C. neoformans cdc50Δ it was 128. The FIC index in the assay with C. neoformans H99 [2] is on record as under 0.5.
As to “WGGIOKNYA [K5O, single ornithine-substituted AW9-Ma derivative]”, the “MIC (SAR screen peptides)” value is given as over 128 in the assay with C. neoformans H99 [1], 8 against C. neoformans cdc50Δ and over 128 against C. glabrata 2001.
For the substance “W{Hyp}GIOONYA [G2HYP, hydroxyproline at position 2, C′ NH2]”, the “MIC (SAR screen peptides)” value in the assay with C. neoformans H99 [1] came out at 8; in the assay on C. neoformans cdc50Δ, 4; with C. glabrata 2001 it was 16; against C. albicans SC5413 it was 16.
With “WGGIOONY{D-Ala} [A9a, D-Ala9 epimer of KKOO]”, the “MIC (SAR screen peptides)” value with C. neoformans H99 [1] is on record as over 128; in the assay on C. neoformans cdc50Δ it was 4; in the assay with C. glabrata 2001, over 128; against C. albicans SC5413 it was over 128.
As for “WGGIAKNYA [K5A, alanine substituted peptide]”, the “MIC (SAR screen peptides)” value against C. neoformans cdc50Δ and against C. glabrata 2001 was over 128 in each case.
As for “WGG{D-Ile}OONYA [I4i, D-Ile4 epimer of KKOO]”, the “MIC (SAR screen peptides)” value against C. neoformans H99 [1] is recorded as 16; with C. neoformans cdc50Δ, 4; with C. glabrata 2001 it was 64; against C. albicans SC5413 it was over 128.
